Assay results: patent US11576865B2, “Sustained-release dosage forms of ruxolitinib” (Incyte Corporation, priority 2012, dated 2023)

Assay: Open-label study of immediate-release ruxolitinib phosphate tablets in MF patients, pharmacokinetics
Type: in vivo, human
Settings: dose from 10 mg to 100 mg
Description: This was an open-label study exploring the safety, tolerability, and efficacy of ruxolitinib, administered orally to patients with primary myelofibrosis (PMF) and post polycythemia vera/essential thrombocythemia myelofibrosis (Post-PV/ET MF). The study was comprised of 3 parts: Part 1-dose escalation and expansion, bid dosing, Part 2-alternative dosing schedules (A, B and C), and Part 3-three independent patient groups (Group I, II and III). Eight dose regimens were evaluated in 3 parts. The Part 1 evaluated two dose levels of 25 mg bid and 50 mg bid, Part 2 studied five dose regimens of 10 mg bid, 25 mg bid, 25 mg qd, 50 mg qd and 100 mg qd and Part 3 assessed six dose regimens of 10 mg bid, 15 mg bid, 25 mg bid, 50 mg qd, 100 mg qd and 200 mg qd. A total of 154 subjects were enrolled; 32 subjects enrolled in Part 1, 29 subjects in Part 2 and 93 subjects in Part 3. See Table 4b (qd=once per day; bid=twice per day).
In Part 1, the pharmacokinetic blood samples were collected at pre-dose and 0.5, 1, 1.5, 2, 4, 6 and 9 hours post-dose on Days 1 and 15 of Cycle 1 and at pre-dose on Day 1 of Cycles 2 and 3, using lavender top (K3EDTA) Vacutainer® tubes. […]
Plasma samples were shipped to Incyte Corporation and assayed by a validated, GLP, LC/MS/MS method with a linear range of 1 to 1000 nM and a limit of quantification of 1 nM. […]

SMILES: N#CC[C@H](C1CCCC1)n1cc(-c2ncnc3[nH]ccc23)cn1 [Ruxolitinib, (3R)-3-cyclopentyl-3-[4-(7H-pyrrolo[2,3-d]pyrimidin-4-yl)pyrazol-1-yl]propanenitrile]
- dose proportionality of mean Cmax and AUC: increased approximately linearly proportional to dose
